# Assay results taken from patent US7897582B2, “Oligonucleotide compositions and methods for the modulation of the expression of B7 protein” (Isis Pharmaceuticals, Inc., priority 2003, dated 2011).
# Strand notation (5' to 3'): a small letter for the sugar, then the base; units joined by * are phosphorothioate-linked, units joined directly phosphodiester-linked; [ ] holds rarer units or linkages, { } end groups; capitals alone tell only the bases. e = 2'-O-(2-methoxyethyl) (MOE); [5mC] = 5-methylcytosine; d = 2'-deoxy (DNA)
# Tested on: Human B7-2 mRNA
# Experiment: Human B7-2 mRNA expression in electroporated THP-1 cells induced with LPS and dibutyryl cAMP
# Assay type: cell-based
# Conditions: THP-1 cells electroporated at 10 micromolar oligonucleotide, LPS and dibutyryl cAMP (500 μM) 16 hours
# From the text: (§1) The human promonocytic leukaemia cell line, THP-1 (American Type Culture Collection, Manassas, Va.) was maintained in RPMI 1640 growth media supplemented with 10% fetal calf serum (FCS; Life Technologies, Rockville, Md.). A total of 1×10^7 cells were electroporated at an oligonucleotide concentration of 10 micromolar in 2 mm cuvettes, using an Electrocell Manipulator 600 instrument (Biotechnologies and Experimental Research, Inc.) employing 200 V, 1000 μF. Electroporated cells were then transferred to petri dishes and allowed to recover for 16 hrs Cells were then induced with LPS and dibutyryl cAMP (500 μM) for 16 hours. RNA was isolated and processed as described in previous examples.
Substance,% mRNA EXPRESSION [%],% mRNA INHIBITION [%]
113145 (antisense eT*eG*eT*eG*eG*dG*d[5mC]*dT*dT*dT*dT*dT*dG*dT*dG*eA*eT*eG*eG*eA) [compound 113145],46,54
113146 (antisense eA*eA*eT*e[5mC]*eA*dT*dT*d[5mC]*d[5mC]*dT*dG*dT*dG*dG*dG*e[5mC]*eT*eT*eT*eT) [compound 113146],32,68
113147 (antisense e[5mC]*e[5mC]*eG*eT*eG*dT*dA*dT*dA*dG*dA*dT*dG*dA*dG*e[5mC]*eA*eG*eG*eT) [compound 113147],35,65
113148 (antisense eA*e[5mC]*e[5mC]*eG*eT*dG*dT*dA*dT*dA*dG*dA*dT*dG*dA*eG*e[5mC]*eA*eG*eG) [compound 113148],23,77
113149 (antisense eT*e[5mC]*eA*eT*e[5mC]*dT*dT*d[5mC]*dT*dT*dA*dG*dG*dT*dT*e[5mC]*eT*eG*eG*eG) [compound 113149],29,71
113150 (antisense eA*e[5mC]*eA*eA*eG*d[5mC]*dT*dG*dA*dT*dG*dG*dA*dA*dA*e[5mC]*eG*eT*e[5mC]*eG) [compound 113150],19,81
113151 (antisense eT*eG*e[5mC]*eT*e[5mC]*dG*dT*dA*dA*d[5mC]*dA*dT*d[5mC]*dA*dG*eG*eG*eA*eA*eT) [compound 113151],208,
113152 (antisense eA*eA*eG*eA*eT*dG*dG*dT*d[5mC]*dA*dT*dA*dT*dT*dG*e[5mC]*eT*e[5mC]*eG*eT) [compound 113152],89,11
113153 (antisense e[5mC]*eG*e[5mC]*eG*eT*d[5mC]*dT*dT*dG*dT*d[5mC]*dA*dG*dT*dT*eT*e[5mC]*e[5mC]*eA*eG) [compound 113153],19,81
113154 (antisense e[5mC]*eA*eG*e[5mC]*eT*dG*dT*dA*dA*dT*d[5mC]*d[5mC]*dA*dA*dG*eG*eA*eA*eT*eG) [compound 113154],63,37
113155 (antisense eG*eG*eG*e[5mC]*eT*dT*d[5mC]*dA*dT*d[5mC]*dA*dG*dA*dT*d[5mC]*eT*eT*eT*e[5mC]*eA) [compound 113155],13,87
113156 (antisense e[5mC]*eA*eT*eG*eT*dA*dT*d[5mC]*dA*d[5mC]*dT*dT*dT*dT*dG*eT*e[5mC]*eG*e[5mC]*eA) [compound 113156],83,17
113157 (antisense eA*eG*e[5mC]*e[5mC]*e[5mC]*d[5mC]*d[5mC]*dT*dT*dA*dT*dT*dA*d[5mC]*dT*e[5mC]*eA*eT*eG*eG) [compound 113157],13,87
113159 (antisense eA*eG*eT*e[5mC]*eT*d[5mC]*d[5mC]*dT*d[5mC]*dT*dT*dG*dG*d[5mC]*dA*eT*eA*e[5mC]*eG*eG) [compound 113159],43,57
113160 (antisense e[5mC]*e[5mC]*e[5mC]*eA*eT*dA*dA*dG*dT*dG*dT*dG*d[5mC]*dT*d[5mC]*eT*eG*eA*eA*eG) [compound 113160],09,91

# Tested on: Human B7-1 mRNA
# Experiment: Human B7-1 mRNA expression in electroporated, LPS-induced THP-1 cells
# Assay type: cell-based
# Conditions: THP-1 cells electroporated at 10 micromolar oligonucleotide, LPS 1 μg/ml 16 hours
# From the text: as §1, with “hrs.” for “hrs”, “at a final concentration of 1 μg/ml” for “and dibutyryl cAMP (500 μM)”
Substance,% mRNA EXPRESSION [%],% mRNA INHIBITION [%]
113489 (antisense e[5mC]*e[5mC]*e[5mC]*eT*e[5mC]*d[5mC]*dA*dG*dT*dG*dA*dT*dG*dT*dT*eT*eA*e[5mC]*eA*eA) [compound 113489],122,
113490 (antisense eG*eA*eA*eG*eA*d[5mC]*d[5mC]*d[5mC]*dT*d[5mC]*d[5mC]*dA*dG*dT*dG*eA*eT*eG*eT*eT) [compound 113490],183,
113491 (antisense e[5mC]*eG*eT*eA*eG*dA*dA*dG*dA*d[5mC]*d[5mC]*d[5mC]*dT*d[5mC]*d[5mC]*eA*eG*eT*eG*eA) [compound 113491],179,
113492 (antisense eT*eT*e[5mC]*e[5mC]*e[5mC]*dA*dG*dG*dT*dG*d[5mC]*dA*dA*dA*dA*e[5mC]*eA*eG*eG*e[5mC]) [compound 113492],27,73
113493 (antisense eT*eG*eG*e[5mC]*eT*dT*d[5mC]*dA*dG*dA*dT*dG*d[5mC]*dT*dT*eA*eG*eG*eG*eT) [compound 113493],488,
113494 (antisense e[5mC]*e[5mC]*eT*e[5mC]*e[5mC]*dG*dT*dG*dT*dG*dT*dG*dG*d[5mC]*d[5mC]*e[5mC]*eA*eT*eG*eG) [compound 113494],77,23
113495 (antisense eG*eG*eT*eG*eA*dT*dG*dT*dT*d[5mC]*d[5mC]*d[5mC]*dT*dG*d[5mC]*e[5mC]*eT*e[5mC]*e[5mC]*eG) [compound 113495],43,57
113496 (antisense eG*eA*eT*eG*eG*dT*dG*dA*dT*dG*dT*dT*d[5mC]*d[5mC]*d[5mC]*eT*eG*e[5mC]*e[5mC]*eT) [compound 113496],71,29
113497 (antisense eA*eG*eG*eT*eA*dT*dG*dG*dA*d[5mC]*dA*d[5mC]*dT*dT*dG*eG*eA*eT*eG*eG) [compound 113497],78,22
113498 (antisense eG*eA*eA*eA*eG*dA*d[5mC]*d[5mC]*dA*dG*d[5mC]*d[5mC]*dA*dG*d[5mC]*eA*e[5mC]*e[5mC]*eA*eA) [compound 113498],37,63
113499 (antisense e[5mC]*eA*eG*e[5mC]*eG*dT*dT*dG*d[5mC]*d[5mC]*dA*d[5mC]*dT*dT*d[5mC]*eT*eT*eT*e[5mC]*eA) [compound 113499],25,75
113500 (antisense eG*eT*eG*eA*e[5mC]*d[5mC]*dA*d[5mC]*dA*dG*dG*dA*d[5mC]*dA*dG*e[5mC]*eG*eT*eT*eG) [compound 113500],83,17
113501 (antisense eA*eG*eA*eT*eG*d[5mC]*dG*dA*dG*dT*dT*dT*dG*dT*dG*e[5mC]*e[5mC]*eA*eG*e[5mC]) [compound 113501],36,64
113502 (antisense e[5mC]*e[5mC]*eT*eT*eT*dT*dG*d[5mC]*d[5mC]*dA*dG*dT*dA*dG*dA*eT*eG*e[5mC]*eG*eA) [compound 113502],26,74
113503 (antisense e[5mC]*eG*eG*eT*eT*d[5mC]*dT*dT*dG*dT*dA*d[5mC]*dT*d[5mC]*dG*eG*eG*e[5mC]*e[5mC]*eA) [compound 113503],65,35
113504 (antisense e[5mC]*eG*e[5mC]*eA*eG*dA*dG*d[5mC]*d[5mC]*dA*dG*dG*dA*dT*d[5mC]*eA*e[5mC]*eA*eA*eT) [compound 113504],46,54
113505 (antisense e[5mC]*eT*eT*e[5mC]*eA*dG*d[5mC]*d[5mC]*dA*dG*dG*dT*dG*dT*dT*e[5mC]*e[5mC]*e[5mC]*eG*e[5mC]) [compound 113505],40,60
113506 (antisense eT*eA*eA*e[5mC]*eG*dT*d[5mC]*dA*d[5mC]*dT*dT*d[5mC]*dA*dG*d[5mC]*e[5mC]*eA*eG*eG*eT) [compound 113506],105,
113507 (antisense eT*eT*e[5mC]*eT*e[5mC]*d[5mC]*dA*dT*dT*dT*dT*d[5mC]*d[5mC]*dA*dA*e[5mC]*e[5mC]*eA*eG*eG) [compound 113507],36,64
113508 (antisense e[5mC]*eT*eG*eT*eT*dG*dT*dG*dT*dT*dG*dA*dT*dG*dG*e[5mC]*eA*eT*eT*eT) [compound 113508],117,
